Measured values taken from patent US7390660B2, “Methods for growing mammalian cells in vitro” (Hoffman-La Roche Inc., priority 2002, dated 2008).
Where “and” joins values, the source holds several entries; their conditions need not be identical. Identical values can stand only once.

Key:
[1] = test system: myeloma cell line (Sp2/0); test: Fermentation in dialysis mode, 1000 L production bioreactor, with addition of citrate; type: cell-based
Source text: The cells of a myeloma cell line (Sp2/0) were thawed and expanded up to 2 L in spinner flasks over a period of approximately 14 days for the inoculation of a 10 L bioreactor. After 2 to 4 days the cells were split or transferred to a 100 L bioreactor and further cultivated for 2 to 4 days. The 100 L bioreactor served as inoculum for the 1000 L production bioreactor. For each inoculum step a starting cell density of about 0.2 to about 0.4×10^6 viable cells per mL was used.
The production bioreactor ran in a dialysis mode. The bioreactor was a stirred tank reactor with a working volume of about 900 to about 1300 L. Aeration was performed by sparging. The following process parameters were controlled: pH, temperature, pO^2, pressure and agitation rate. The bioreactor was equipped for dialysis mode with hollow fibre cartridges. The cartridges were connected to an external loop with a dialysis medium reservoir. The dialysis of the culture was started 2 to 4 days after inoculation. During fermentation the reservoir was repeatedly filled up with fresh dialysis medium. Some medium components were fed as separate sterile solutions to the bioreactor. These comprise glucose, amino acids, vitamins, and trace elements.
Fermentation was terminated after a maximum of 16 days.
The citrate was added to the fermentation medium and to the dialysis medium.

[2] = test system: myeloma cell line (Sp2/0); test: Fermentation in fed batch mode, 10 L bioreactor, with addition of citrate; type: cell-based; settings: 2.4 mmol/L citrate, 10 L scale, single runs and mean
Procedure: The cells of a myeloma cell line were thawed (Sp2/0) and expanded up to 2 L in spinner flasks for the inoculation of a 10 L bioreactor. The production bioreactor ran in a fed batch mode. The bioreactor was a stirred tank reactor with a working volume of from about 9 to about 13 L. Aeration was performed by sparging. The following process parameters were controlled: pH, temperature, pO2, pressure and agitation rate. Feeding of the culture was started 2 to 4 days after inoculation. Components including glucose, amino acids, vitamins, and trace elements were fed as separate sterile solutions to the bioreactor. Fermentation was terminated after maximum of 10 days.

## O=C(O)CC(O)(CC(=O)O)C(=O)O [Citrate]
[1]
  Amount of alkali required to adjust a constant pH value reduced to, % of the control: about 34%
[1]; 1000 L scale, versus runs without citrate, printed 'reduced ... about 44%'
  Reduction of the specific consumption rate for glucose: about 44%
[2]
  Specific consumption rate of glucose: 443 μg/10^6 cells x day and 715 μg/10^6 cells x day and 451 μg/10^6 cells x day
  Specific production rate of lactate: 230 μg/10^6 cells x day and 392 μg/10^6 cells x day and 304 μg/10^6 cells x day
[2]; mean
  Specific consumption rate of glucose: 536 μg/10^6 cells x day
